Laboratory results from patent publication US20100144660A1, “USE OF N,N-DIETHYL-2-[-4-(PHENYLMETHYL)-PHENOXY]ETHANAMINE MONOHYDROCHLORIDE (DPPE) IN CANCER THEREAPY” (YM Biosciences Inc., priority 2001, published 2010).
Like-named read-outs stand apart in the source and are kept apart here.

Assays:
[1] = competition assays; cited from earlier work
[2] = test system: breast cancer patients who relapsed following surgery; test: Phase III clinical trial: DPPE and doxorubicin versus doxorubicin alone, survival analysis by subgroup; assay type: in vivo, human; conditions: for 1 yr (one year survival) / MST (median survival time): only ER known; for median survival time (MST) / one year survival: duration 6-36 month, prior chemotherapy group (FIG. 27), DPPE added to doxorubicin versus doxorubicin alone
Method: Two arms of treatment were involved in this trial. Patients were randomly selected to participate in either arm. In one arm, patients were treated with DPPE and doxorubicin, in the other arm patients were treated with doxorubicin alone.
In the trial, patients were permitted to stay on doxorubicin for a maximum of about 7 cycles (5 months). […] DPPE was administered to patients in the amount of 6 mg/kg (or 240 mg/M^2) over 80 minutes, with the concurrent administration of doxorubicin over the last 20 minutes at a […] of 60-90 mg/M^2.
The patients in the trial were assigned to subgroups based on duration, i.e. the length of time between the initial diagnosis of breast cancer and the appearance of advanced disease. The subgroups were: (i) less than or equal to 6 months, (ii) between 6 months and 36 months and (iii) more than 36 months.
For this subgroup analysis, the 3 duration subgroups (<6 m, 6-36 m and >36 m) are further subdivided into groups of patients that (i) have undergone prior chemotherapy, and (ii) have not undergone prior chemotherapy.
For this analysis, the patients in the trial were divided into subgroups based on Eastern Cooperative Oncology Group (ECOG) Performance Status (PS).
In this example, the patients were divided into subgroups of those patients that originated from Eastern Europe and those that originated mainly from Western Europe and North America.

[3] = test system: MCF-7 breast cancer cells; conditions: ER−/AEBS+ or ER+/AEBS+ cells; cited from earlier work
[4] = cited from earlier work
[5] = test system: hormone-unresponsive metastatic prostate cancer; conditions: intravenous infusion of DPPE over approximately one hour prior to cyclophosphamide; cited from earlier work
[6] = test system: normal and malignant cells; conditions: cited from earlier work
[7] = test system: intracellular histamine receptors; conditions: cited from earlier work
[8] = Geographically restricted subset
[9] = Geographically restricted subset (Eastern Europe excluded)
[10] = duration <36 m, ER+ (known ER status)
[11] = duration <36 m, ER− (known ER status)
[12] = duration >36 M, ER+ (known ER status)
[13] = duration >36 m, ER− (known ER status)
[14] = response PD (progressive disease)

CCN(CC)CCOc1ccc(C(=O)c2ccc(F)cc2)cc1 [DFPE, N,N-diethyl-2-[4-(4′-fluorophenone)-phenoxy]ethanamine]
potency compared to DPPE [1]: greater potency

COc1cccc2c1C(=O)c1c(O)c3c(c(O)c1C2=O)C[C@@](O)(C(=O)CO)C[C@@H]3O[C@H]1C[C@H](N)[C@H](O)[C@H](C)O1 [DOX, doxorubicin]
1 yr survival ([2]; ECOG PS 0): 75% | MST ([2]; ECOG PS 0): 20.3 m | 1 yr survival ([2]; ECOG PS 1): 48% | MST ([2]; ECOG PS 1): 11.7 m | 1 yr survival ([2]; ECOG PS 2): 33% | MST ([2]; ECOG PS 2): 5.9 m | 1 yr (one year survival) ([2]; ER+ patients): 62% | MST (median survival time) ([2]; ER+ patients): 16.5 m | 1 yr (one year survival) ([2]; ER− patients): 36% | MST (median survival time) ([2]; ER− patients): 9.5 m | Survival by ECOG = 0, 1 yr [2, 8]: 63% | Survival by ECOG = 0, MST [2, 8]: 16.5 m | Survival by ECOG = 1, 1 yr [2, 8]: 42% | Survival by ECOG = 1, MST [2, 8]: 11.5 m | Survival by ER status ER−, 1 yr [2, 8]: 39% | Survival by ER status ER−, MST [2, 8]: 9 m | Survival by ER+, 1 yr [2, 8]: 55% | Survival by ER+, MST [2, 8]: 15.5 m | Survival by duration: 6-36 m, MST [2, 8]: 9 m | Survival by response: CR/PR, 1 yr [2, 8]: 62% | Survival by response: SD, 1 yr [2, 8]: 53% | Survival by response: SD, MST [2, 8]: 12 m | Survival for ER+ vs ER− within the arm [2, 8]: ER+ considerably better than ER− | Overall survival 1 yr [2, 9]: 50% | Overall survival MST [2, 9]: 12 m | Overall survival 1 yr ([2]; Whole trial (Table 10)): 60% | Overall survival MST ([2]; Whole trial (Table 10)): 15.6 m | Survival by ECOG = 0, 1 yr ([2]; Whole trial (Table 10)): 75% | Survival by ECOG = 0, MST ([2]; Whole trial (Table 10)): 20.3 m | Survival by ECOG = 1, 1 yr ([2]; Whole trial (Table 10)): 48% | Survival by ECOG = 1, MST ([2]; Whole trial (Table 10)): 11.7 m | Survival by ER status ER−, 1 yr ([2]; Whole trial (Table 10)): 36% | Survival by ER status ER−, MST ([2]; Whole trial (Table 10)): 9.5 m | Survival by ER+, 1 yr ([2]; Whole trial (Table 10)): 62% | Survival by ER+, MST ([2]; Whole trial (Table 10)): 16 m | Survival by duration: 6-36 m, MST ([2]; Whole trial (Table 10)): 11.5 m | Survival by response: CR/PR, 1 yr ([2]; Whole trial (Table 10)): 74% | Survival by response: SD, 1 yr ([2]; Whole trial (Table 10)): 59% | Survival by response: SD, MST ([2]; Whole trial (Table 10)): 17 m | Survival for ER+ vs ER− within the arm ([2]; Whole trial (Table 10)): ER+ considerably better than ER− | lived on average (survival) ([2]; all breast cancer patients of the trial): fifteen | median survival time (MST) [2]: 10.7 months | one year survival [2]: 40% | 1 yr survival ([2]; duration <6 m): 56% | MST ([2]; duration <6 m): 15 m | 1 yr survival [2, 10]: 52% | MST [2, 10]: 15.5 m | 1 yr survival [2, 11]: 36% | MST [2, 11]: 9.5 m | 1 yr survival ([2]; duration >6 but <36 m): 45% | MST ([2]; duration >6 but <36 m): 11.5 m | 1 yr survival [2, 12]: 82% | MST [2, 12]: 18 m | 1 yr survival ([2]; duration >36 m): 77% | MST ([2]; duration >36 m): 20.3 m | 1 yr survival [2, 13]: 66% | MST [2, 13]: 12 m | median survival time (FIG. 22) ([2]; duration >36 months): 28.6356 | median survival time (FIG. 21) ([2]; duration of ≦36 months): 12.1973 | 1 yr survival ([2]; response CR/PR): 74% | MST ([2]; response CR/PR): 28.5 m | 1 yr survival [2, 14]: 34% | MST [2, 14]: 10.5 m | 1 yr survival ([2]; response SD (stable disease)): 59% | MST ([2]; response SD (stable disease)): 17 m

CCN(CC)CCOc1ccc(Cc2ccccc2)cc1.Cl [DPPE, N,N-diethyl-2-[-4-(phenylmethyl)-phenoxy]ethanamine monohydrochloride]
in vitro growth of MCF-7 breast cancer cells [3]: inhibit | toxicity ([4]; 4 mg/kg (160 mg/M^2) over 1 hour intravenously): non-toxic | clinical side effects ([4]; 8 mg/M^2 over 24 to 72 hours): do not result in clinical side effects | toxicity ([4]; 240 mg/M^2 over 1 hour): may result in CNS toxicity | Survival by response: PD, comparison of arms ([2]; Geographically restricted subset, DPPE/DOX versus DOX): DPPE a little better at first | survival benefit from the addition of DPPE ([2]; duration 6-36 m, no prior chemotherapy group): little, if any, benefit | median survival time (MST) [2]: > 17.5 months | one year survival [2]: under 70% | survival benefit from the addition of DPPE ([2]; duration >36 m, prior and no prior chemotherapy subgroups): neither of the subgroups show any benefit | effect on anti-cancer activity and toxicity of cyclophosphamide [5]: potentiate the anti-cancer activity and ameliorate the toxicity | cell proliferation in vivo ([6]; animal model): inhibit normal cell proliferation while promoting malignant cell proliferation | interaction with doxorubicin (Adriamycin) ([6]; tumour-bearing animals treated concurrently with DPPE): act synergistically | antagonism of intracellular histamine receptors [7]: potent antagonist
